In brackets after ≈: the same amount, converted by molar mass.
Tests used:
[1] = Metabolic stability in liver microsomes (rat); assay type: in vitro ADME; settings: for CLint scaled at 1 μM: pH 7.4; for half-life at 1 μM: pH 7.4, read-out: Metabolic stability T½
Procedure: Buffers A-C were prepared for use in the metabolic study. The buffers were as follows: Buffer A: 1.0 L of 0.1 M monobasic Potassium Phosphate buffer containing 1.0 mM EDTA; Buffer B: 1.0 L of 0.1 M Dibasic Potassium Phosphate buffer containing 1.0 mM EDTA; and Buffer C: 0.1 M Potassium Phosphate buffer, 1.0 mM EDTA, pH 7.4 by titrating 700 mL of buffer B with buffer A while monitoring with the pH meter.
Ketanserin was used as the reference compound. Reference compound and test compound spiking solutions (500 μM spiking solution) were prepared by adding 10 μL of 10 mM DMSO stock solution into 190 μL ACN. 1.5 μL of 500 μM spiking solution (0.75 mg/mL) and 18.75 μL of 20 mg/mL liver microsomes were added into 479.75 μL of Buffer C on ice.
A 6 mM NADPH stock solution was prepared by dissolving an appropriate amount of NADPH into buffer C. 30 μL of 1.5 μM spiking solution containing 0.75 mg/mL microsomes solution was dispensed to the assay plates designated for different time points (0-, 5-, 15-, 30-, 45-min) on ice. […] All the other plates were pre-incubated at 37° C. for 5 minutes. 15 μL of 6 mM NADPH stock solution was added to the plates to start the reaction and time. At 5-min, 15-min, 30-min, and 45-min, 135 μL of ACN containing internal standard were added to the wells of corresponding plates, respectively, to stop the reaction. […]

Solubility = assay type: physicochemical; settings: aqueous buffer, kinetic from dmso stock; PBS(Ph 7.4), 1 hour shaking at room temperature; read-out: Solubility SolubilityU (um)
Procedure: 10 μL test compound was added to 990 μL buffer. Sample tubes were shaken for 1 hour (1000 rpm) at room temperature. Samples were centrifuged for 10 minutes at 1200 rpm to precipitate un-dissolved particles. Supernatants were collected for LCMSMS or LC-UV analysis.

RBC partitioning study = assay type: in vitro ADME; settings: rat
Procedure: 0.05 M sodium phosphate buffer, pH 7.4 was prepared using the following steps. Stock A, stock B, and stock C solutions were prepared by adding 156 g of monobasic sodium phosphate in 1 L of Milli-Q water (1.0 M), 142 g of dibasic sodium phosphate in 1 L of Milli-Q water (1.0 M), and 58.5 g of sodium chloride in 1 L of Milli-Q water (1.0 M) respectively. 20.25 mL of Stock B and 4.75 mL of Stock A were added to 35 mL of Stock C and the total volume was brought to near 500 mL with Milli-Q water. The resulting buffer solution was titrated with NaOH or H3PO4 to pH 7.4 and the total volume was brought to 500 mL. The 0.05 M sodium phosphate buffer was preheated at 37° C.
Fresh blank plasma preparation and hematocrit determination. A tube containing whole blood was centrifuged at 4000 rpm for 10 minuts. The plasma was harvested was stored. Hematocrit (the volume of red blood cells to the total volume of whole blood) was determined using the formula:
Hematocrit=Vred cells/Vblood=(Vblood−Vplasma)/Vblood
Vblood: the volume of whole blood applied
Vplasma: the volume of plasma measured after centrifugation
Preparation of reference and test compound spiking solutions in plasma. 1.25 mM spiking solution A was prepared by adding add 10 μL of 10 mM reference into 70 μL of plasma (8-fold dilution).
Preparation of reference and test compound in whole blood and plasma. For whole blood samples, 12 μL of spiking solution B (prepared above) was added to 288 μL of whole blood (25-fold dilution). For plasma samples, 6 μL of spiking solution B was added to 144 μL of plasma (25-fold dilution). The assay procedure used is as follows. The assay plate was placed in an incubator at 37° C. for 60 minutess. 300 μL of compound spiking solution in whole blood from above was removed and centrifuged at 4000 rpm for 10 minutes. Subsequently plasma was harvested. 50 μL of plasma sample was removed and 150 μL of acetonitrile (containing IS) was added and vortexed for 5 min. The sample was centrifuged at 6000 rpm for 15 minutes. The supernatant was removed and analyzed by LC/MS.

[2] = Plasma protein binding by dialysis; assay type: in vitro ADME; settings: rat plasma; for Protein Binding Fu(%) / fraction unbound at 5 h, 1 μM: 1 μM, 5 hours dialysis at 37° C.; for fraction unbound at 5 h, 1 μM: read-out: Protein Binding Fraction unbound (fu) (converted)
Procedure: The following solutions were prepared: Solution A (0.5 mM) 10 μL of 10 mM stock solution was added into 190 μL of DMSO and Solution B (0.02 mM): 8 μL of Solution A was added into 192 μL of 0.05 M sodium phosphate buffer. The final DMSO concentration in Solution B is 4%.
A 96-well plate was preloaded with 380 μL aliquots of plasma in the wells designated for plasma and buffer, respectively. 20 μL of Solution B (0.02 mM of test and reference compounds) was spiked into the pre-loaded plasma in the 96-well plate. The final test concentration was 1 μM containing 0.2% DMSO.
Aliquots of 100 μL of blank dialysis buffer were applied to the receiver side of dialysis chambers. Next aliquots of 100 μL of the plasma spiked with test and reference compounds were applied to the donor side of the dialysis chambers. Blank buffer was added to the receiver first and the buffer and plasma chambers were clearly marked to avoid cross contamination.
Aliquots of 25 μL of plasma spiked with test and reference compounds were placed in 96-well sample preparation plates as t=0 min plasma samples. The aliquots were mixed with the same volume of blank buffer (50:50, v/v). The samples were quenched with 200 μL of acetonitrile containing internal standard (IS). The dialysis block was covered with a plastic lid and the entire apparatus was placed on a shaker (60 rpm) for 5 hours at 37° C.
25 μL aliquot from both the donor sides and receiver sides of the dialysis apparatus were placed into new sample preparation plates and mixed with the same valune of opposite matrixes (blank buffer to plasma and vice versa). The sample was quenched with 200 μL acetonitrile containing internal standard. All the samples from 0 hour to 5 hours were vortexed at 600 rpm for 10 minutes followed by centrifugation at 5594 g for 15 minutes (Thermo Multifuge×3R). 50 μL of the supernatant was transferred to a new 96-well plate and the sample was mized with 50 μL of Mili-Q water. The sample plate was covered and stored in a −20° C. freezer. The samples were subsequently analyzed by LC/MS/MS.

With `CC(C)(NC(=O)[C@H]1[C@@H]2CNC[C@H]1C2)c1ncc2c(Cl)cccn12` [Compound 7, (1R,5S,6r)-N-(2-(8-chloroimidazo[1,5-a]pyridin-3-yl)propan-2-yl)-3-azabicyclo[3.1.1]heptane-6-carboxamide] the CLint scaled at 1 μM [1] was 18.4 mL/min/kg, the half-life at 1 μM [1] was 2.25 h and the solubility at 1 h (Solubility) was 101.75 ± 0.03 µM (≈ 33.9 µg/mL). For the same compound, the “RBC Partitioning Study KRBC/PL” value (RBC partitioning study) was 1.15, the “Protein Binding Category” value [2] was “Moderate” and the recovery at 5 h, 1 µM [2] was 96.6%. For the same compound, the “Protein Binding Fu(%)” value [2] was 37.8% and the fraction unbound at 5 h, 1 μM [2] was 0.378.
In the case of `CC(C)(NC(=O)[C@H]1[C@@H]2CNC[C@H]1C2)c1nc(C2CC2)c2ccccn12` [Compound 9, (1R,5S,6r)-N-(2-(1-cyclopropylimidazo[1,5-a]pyridin-3-yl)propan-2-yl)-3-azabicyclo[3.1.1]heptane-6-carboxamide], the CLint scaled at 1 μM [1] is reported as 1.73 mL/min/kg, the half-life at 1 μM [1] is reported as 23.9 h and the solubility at 1 h (Solubility) is reported as 130.5 ± 0.02 µM (≈ 44.2 µg/mL). The “RBC Partitioning Study KBlood/PL” value (RBC partitioning study) was 1.05, the “RBC Partitioning Study KRBC/PL” value (RBC partitioning study) was 1.09 and the “Protein Binding Category” value [2] was “Moderate”. For the same compound, the recovery at 5 h, 1 µM [2] was 68.2%, the “Protein Binding Fu(%)” value [2] was 40.9% and the fraction unbound at 5 h, 1 μM [2] was 0.409.
In the case of `CC(C)(NC(=O)[C@H]1[C@@H]2CNC[C@H]1C2)c1ncc2c(Br)cccn12` [Compound 8, (1R,5S,6r)-N-(2-(8-bromoimidazo[1,5-a]pyridin-3-yl)propan-2-yl)-3-azabicyclo[3.1.1]heptane-6-carboxamide], the CLint scaled at 1 μM [1] is reported as 2.98 mL/min/kg, the half-life at 1 μM [1] is reported as 9.71 h and the solubility at 1 h (Solubility) is reported as 91.6 µM (≈ 34.6 µg/mL). For the same compound, the “RBC Partitioning Study KRBC/PL” value (RBC partitioning study) was 0.94, the “Protein Binding Category” value [2] was “Moderate” and the recovery at 5 h, 1 µM [2] was 103%. The “Protein Binding Fu(%)” value [2] was 28.16% and the fraction unbound at 5 h, 1 μM [2] was 0.282.
